Measurements from patent US20140377390A1, “Cosmetic Compositions Comprising Plant Extracts for Combating Skin Aging” (CASTER, priority 2013, published 2014).
[ ]: non-standard residue; d: D form. Cit = NC(=O)NCCC[C@H](N)C(=O)O

Key:
[1] = test system: primary human fibroblast cells (HDFa); assay: Evaluation of cytotoxicity, MTT colorimetric test (cell vitality); format: cell-based; conditions: relative to untreated cells = 100%
Source text: This test serves to define the maximum tolerable dose that can be used on the cells without a toxic effect, by means of a rapid and sensitive quantification of the cell proliferation and of the cell viability as a function of the compositions according to the invention.
Briefly, the colorimetric test is based on the activity of a mitochondrial enzyme, succinate dehydrogenase, which degrades the yellow substrate MTT (3-[4,5-dimethylthiazol-2-yl]-2,5-diphenyltetrazolium bromide) into formazan crystals (violet). The amount of formazan salt produced by the cells from the MTT indicates the cell vitality and is measured by spectrophotometry at 570 nm.
In passage 3, the cells were seeded into 96-well plates in a proportion of 2000 cells in a volume of 200 μl of culture medium (Tebu-Bio—Fibroblast Growth Medium—500 ml—Ref 95116500).
On day 7 after seeding of the cells (the medium having been replaced with fresh medium every two days), the culture medium (Tebu-Bio—Fibroblast Growth Medium—500 ml—Ref. 95116500) is removed and 200 μl of the active agent to be tested, diluted in culture medium (no less than 50% of medium), are added and then the cells are reincubated (37° C., 5% CO2).
On the day of the test, 2 ml of fresh MTT solution are prepared by diluting the MTT powder (Thiazolyl Blue Tetrazolium Bromide, Sigma ref. M 5655) to 5 mg/ml in PBS.
20 μl of MTT solution are added to each well. After homogenization, the plate is reincubated (37° C., 5% CO2) for 3 to 4 hours so as to allow metabolization of the MTT.
During this time, the MTT solubilization solution is prepared (DMSO/Isopropanol—1:1). The culture medium is removed by suctioning, and then the plate is dried with absorbent paper. The formazan crystals which have formed are then resuspended with 150 μl of MTT solubilization solution, by agitation at 150 rpm for 15 minutes at ambient temperature.
The optical density is then read at 570 nm on a Perkin Elmer Enspire® Multimode Reader spectrophotometer, with the OD at 670 nm (background noise) being removed.
The result is expressed as a function of the % absorption relative to the % absorption noted for the control cells (not treated with a compound).

[2] = test system: MDR (Multidrug Resistance Proteins) in HDFa cells; assay: MDR activity test (calcein retention, Vybrant MDR Resistance Assay Kit); conditions: 24 hours, control = 100%
Source text: In normal cells, non-fluorescent calcein enters the cell and accumulates therein. It is hydrolysed therein by endogenous esterases, and becomes fluorescent. In cells in which MDR expression is increased, the presence of these protein transporters makes it possible to expel the calcein out of the cell before it is cleaved: there is no fluorescence.
To do this, the Molecular Probes Vybrant MDR Resistance Assay Kit (V13180 Invitrogen Life Science) is used.
These cells are then in passage 4. The cells are left to stand for 48 h for adhesion in an incubator at 37° C. and 5% CO2. […] This stock solution at 10 mg/ml is then diluted in PBS until the working concentration is obtained; • 5 wells with FGF (Sigma) at 5 nM final concentration in the well (positive control) or KGF (Sigma) at 25 ng/ml.
The cells comprising active agents are incubated at 37° C., 5% CO2 for 24 hours.
On D3, a labelling solution is prepared by diluting the calcein solution of the kit at 1 mM (component A of the Invitrogen Life Science kit V13180) in PBS, so as to achieve a concentration of 1 μM (1000× dilution); 50 μl of calcein diluted to 1 μM are provided per well, i.e. 5 ml per 96-well plate. […]
The calcein retention is measured on a Perkin Elmer Enspire® Multimode Reader fluorescence spectrophotometer, by reading the fluorescein fluorescence (λexcitation: 494 nm, λemission: 512 nm). […]

H-KDV[Cit]-NH2 [Peptide] was tested, and the “% vitality” value ([1]; peptide concentration 0.000001%) was 94.6%, the “% vitality” value ([1]; peptide concentration 0.00001%) was 71.0% and the “% vitality” value ([1]; peptide concentration 0.00002%) was 66.9%. The “% vitality” value ([1]; peptide concentration 0.00004%) was 72.0%, the “% vitality” value ([1]; peptide concentration 0.00006%) was 44.7% and the “% vitality” value ([1]; peptide concentration 0.00008%) was 57.3%. For the same molecule, the “% vitality” value ([1]; peptide concentration 0.0001%) was 39.8%, the “% vitality” value ([1]; peptide concentration 0.0002%) was 47.6% and the “% vitality” value ([1]; peptide concentration 0.005%) was 49.7%.

`COc1ccc(CCN(C)CCCC(C#N)(c2ccc(OC)c(OC)c2)C(C)C)cc1OC` (centres unmarked) [Verapamil, verapamil, reference compound] was tested, and the “% calcein retention” value ([2]; 30 μg/ml, greater than 100 = inhibits MDR activity) was 139.1%.

B1: KGF: KGF (Sigma), growth factor, positive control (protein, UniProt P21781 32-194, looked up)
Fibroblast growth factor 7: CNDMTPEQMATNVNCSSPERHTRSYDYMEGGDIRVRRLFCRTQWYLRIDKRGKVKGTQEMKNNYNIMEIRTVAVGIVAIKGVESEFYLAMNKEGKLYAKKECNEDCNFKELILENHYNTYASAKWTHNGGEMFVALNQKGIPVRGKKTKKEQKTAHFLPMAIT
With B1 the “% calcein retention” value ([2]; 25 ng/ml, less than 100 = stimulates MDR activity) was 92.3%.
